Results taken from patent publication US9695155B2, “Herbicidal substituted pyrimidinyloxy benzene compounds” (E. I. DU PONT DE NEMOURS AND COMPANY, priority 2013, dated 2017).

Key:
[1] = tested on: corn; assay: Test A postemergence; format: in vivo, Zea mays
Procedure, shortened: (§1)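 Injury scores run from 0, no effect, to 100, complete control, judged by eye against untreated plants roughly 10 days after treatment. Chemicals carried a surfactant in a non-phytotoxic solvent and went onto loam–sand soil preemergence or onto one- to two-leaf seedlings postemergence.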

[2] = tested on: ragweed; assay: Test A postemergence; format: in vivo, Ambrosia elatior; conditions: 0 to 100 scale, 0 no effect, 100 complete control
Procedure, shortened: as §1

[3] = tested on: barnyardgrass; assay: Test A postemergence; format: in vivo, Echinochloa crus-galli
Procedure, shortened: as §1

[4] = tested on: barnyardgrass; assay: Test A preemergence; format: in vivo, Echinochloa crus-galli; conditions: for Plant response rating, Barnyardgrass: 0 to 100 scale where 0 is no effect and 100 is complete control
Procedure, shortened: as §1

[5] = tested on: ragweed; assay: Test A preemergence; format: in vivo, Ambrosia elatior; conditions: for Plant response rating, Ragweed: 0 to 100 scale where 0 is no effect and 100 is complete control
Procedure, shortened: as §1

[6] = tested on: giant foxtail; assay: Test A preemergence; format: in vivo, Setaria faberii; conditions: for Plant response rating, Foxtail, Giant: 0 to 100 scale where 0 is no effect and 100 is complete control
Procedure, shortened: as §1

[7] = tested on: barnyardgrass; assay: Test B flooded paddy test; format: in vivo, Echinochloa crus-galli; conditions: Flood, 250 g ai/ha; 0 to 100 scale where 0 is no effect and 100 is complete control
Procedure, shortened: (§2)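 Visual ratings on a 0 to 100 scale, where 100 means complete control, compared treated plants with controls after 13 to 15 days in a greenhouse. Treatment went into paddy water 3 cm deep over the soil, applied to plants at the 2-leaf stage.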

[8] = tested on: kochia; assay: Test A preemergence; format: in vivo, Kochia scoparia; conditions: for Plant response rating, Kochia: 0 to 100 scale where 0 is no effect and 100 is complete control
Procedure, shortened: as §1

[9] = tested on: giant foxtail; assay: Test A postemergence; format: in vivo, Setaria faberii
Procedure, shortened: as §1

[10] = tested on: rice; assay: Test B flooded paddy test; format: in vivo, Oryza sativa; conditions: Flood, 250 g ai/ha; 0 to 100 scale where 0 is no effect and 100 is complete control
Procedure, shortened: as §2

[11] = tested on: Italian ryegrass; assay: Test A postemergence; format: in vivo, Lolium multiflorum; conditions: 0 to 100 scale, 0 no effect, 100 complete control
Procedure, shortened: as §1

[12] = tested on: wheat; assay: Test A postemergence; format: in vivo, Triticum aestivum; conditions: 0 to 100 scale, 0 no effect, 100 complete control
Procedure, shortened: as §1

[13] = tested on: galium; assay: Test A postemergence; format: in vivo, Galium aparine
Procedure, shortened: as §1

[14] = tested on: pigweed; assay: Test A postemergence; format: in vivo, Amaranthus retroflexus; conditions: 0 to 100 scale, 0 no effect, 100 complete control
Procedure, shortened: as §1

[15] = tested on: Heteranthera limosa; assay: Test B flooded paddy test; format: in vivo; conditions: Flood, 250 g ai/ha; 0 to 100 scale where 0 is no effect and 100 is complete control
Procedure, shortened: as §2

[16] = tested on: pigweed; assay: Test A preemergence; format: in vivo, Amaranthus retroflexus; conditions: for Plant response rating, Pigweed: 0 to 100 scale where 0 is no effect and 100 is complete control
Procedure, shortened: as §1

[17] = tested on: blackgrass; assay: Test A postemergence; format: in vivo, Alopecurus myosuroides
Procedure, shortened: as §1

[18] = tested on: kochia; assay: Test A postemergence; format: in vivo, Kochia scoparia
Procedure, shortened: as §1

[19] = tested on: Italian ryegrass; assay: Test A preemergence; format: in vivo, Lolium multiflorum; conditions: for Plant response rating, Ryegrass, Italian: 0 to 100 scale where 0 is no effect and 100 is complete control
Procedure, shortened: as §1

[20] = tested on: sedge, umbrella; assay: Test B flooded paddy test; format: in vivo, Cyperus difformis; conditions: Flood, 250 g ai/ha; 0 to 100 scale where 0 is no effect and 100 is complete control
Procedure, shortened: as §2

[21] = 31 g ai/ha, 0 to 100 scale, 0 no effect, 100 complete control
[22] = 125 g ai/ha, 0 to 100 scale, 0 no effect, 100 complete control
[23] = 31 g ai/ha, visual, approximately 10 days
[24] = 1000 g ai/ha, 0 to 100 scale, 0 no effect, 100 complete control
[25] = 1000 g ai/ha, 0 to 100 scale, 0 no effect, 100 complete control, approx. 10 days
[26] = 125 g ai/ha, 0 to 100 scale where 0 is no effect and 100 is complete control

With `FC(F)(F)c1cnn(-c2c(Oc3ncc(Cl)cn3)cccc2-c2ncon2)c1` [Compound 279] as the compound, how does the “Plant response rating, Corn” value [1, 21] read?
Its value is 10.

What about the “Plant response rating, Corn” value [1, 22] of the same compound?
Its value is 10.

And the “Plant response rating, Ragweed” value ([2]; 31 g ai/ha)?
Its value is 20.

What about the “Plant response rating, Ragweed” value ([2]; 125 g ai/ha) of the same compound?
The value was 40.

What about the “Plant response rating, Barnyardgrass” value [3, 21] of the same compound?
Its value is 0.

What about the “Plant response rating, Barnyardgrass” value [3, 22] of the same compound?
The value was 30.

And the “Plant response rating, Barnyardgrass” value [4, 23]?
Its value is 0.

And the “Barnyardgrass plant response rating (0 to 100 scale, 0 is no effect, 100 is complete control)” value ([4]; 125 g ai/ha)?
Its value is 10.

What about the “Plant response rating, Ragweed” value [5, 23] of the same compound?
The value was 0.

And the “Ragweed plant response rating (0 to 100 scale)” value ([5]; 125 g ai/ha)?
The value was 10.

What about the “Plant response rating, Foxtail, Giant” value [6, 23] of the same compound?
Its value is 40.

And the “Foxtail, Giant plant response rating (0 to 100 scale)” value ([6]; 125 g ai/ha)?
The value was 50.

What about the “Plant response rating, Barnyardgrass” value [7] of the same compound?
Its value is 75.

What about the “Plant response rating, Kochia” value [8, 23] of the same compound?
The value was 40.

What about the “Kochia plant response rating (0 to 100 scale)” value ([8]; 125 g ai/ha) of the same compound?
The value was 90.

And the “Plant response rating, Foxtail, Giant” value [9, 21]?
The value was 10.

And the “Plant response rating, Foxtail, Giant” value [9, 22]?
The value was 50.

What about the “Plant response rating, Rice” value [10] of the same compound?
Its value is 50.

What about the “Plant response rating, Ryegrass, Italian” value ([11]; 31 g ai/ha) of the same compound?
The value was 0.

What about the “Plant response rating, Ryegrass, Italian” value ([11]; 125 g ai/ha) of the same compound?
Its value is 50.

And the “Plant response rating, Wheat” value ([12]; 31 g ai/ha)?
Its value is 0.

And the “Plant response rating, Wheat” value ([12]; 125 g ai/ha)?
The value was 30.

And the “Plant response rating, Galium” value [13, 21]?
Its value is 20.

What about the “Plant response rating, Galium” value [13, 22] of the same compound?
The value was 80.

And the “Plant response rating, Pigweed” value ([14]; 31 g ai/ha)?
The value was 50.

And the “Plant response rating, Pigweed” value ([14]; 125 g ai/ha)?
Its value is 80.

What about the “Plant response rating, Ducksalad” value [15] of the same compound?
Its value is 90.

And the “Plant response rating, Pigweed” value [16, 23]?
Its value is 90.

And the “Pigweed plant response rating (0 to 100 scale)” value ([16]; 125 g ai/ha)?
The value was 100.

And the “Plant response rating, Blackgrass” value [17, 21]?
Its value is 10.

And the “Plant response rating, Blackgrass” value [17, 22]?
The value was 40.

What about the “Plant response rating, Kochia” value [18, 21] of the same compound?
The value was 40.

And the “Plant response rating, Kochia” value [18, 22]?
The value was 90.

What about the “Plant response rating, Ryegrass, Italian” value [19, 23] of the same compound?
Its value is 0.

And the “Ryegrass, Italian plant response rating (0 to 100 scale)” value ([19]; 125 g ai/ha)?
The value was 0.

What about the “Plant response rating, Sedge, Umbrella” value [20] of the same compound?
Its value is 90.

Which results are given for `NS(=O)(=O)c1cnn(-c2ccccc2Oc2ncc(Cl)cn2)c1` [Compound 282]?
Plant response rating, Corn [1, 24]: 50; Plant response rating, Ragweed ([2]; 1000 g ai/ha): 100; Plant response rating, Barnyardgrass [3, 24]: 90; Barnyardgrass plant response rating [4, 25]: 90; Ragweed plant response rating [5, 25]: 100; Foxtail, Giant plant response rating [6, 25]: 100; Plant response rating, Barnyardgrass [7]: 0; Kochia plant response rating [8, 25]: 100; Plant response rating, Foxtail, Giant [9, 24]: 60; Plant response rating, Rice [10]: 0; Plant response rating, Ryegrass, Italian ([11]; 1000 g ai/ha): 80; Plant response rating, Wheat ([12]; 1000 g ai/ha): 0; Plant response rating, Galium [13, 24]: 30; Plant response rating, Pigweed ([14]; 1000 g ai/ha): 80; Plant response rating, Ducksalad [15]: 0; Pigweed plant response rating [16, 25]: 100; Plant response rating, Blackgrass [17, 24]: 100; Plant response rating, Kochia [18, 24]: 90; Ryegrass, Italian plant response rating [19, 25]: 50; Plant response rating, Sedge, Umbrella [20]: 0

Which results are given for `Clc1cnc(Oc2ccccc2-n2ccnc2)nc1` [Compound 100]?
Plant response rating, Corn [1, 21]: 0; Plant response rating, Corn [1, 26]: 0; Plant response rating, Ragweed ([2]; 31 g ai/ha): 0; Plant response rating, Barnyardgrass [3, 21]: 0; Plant response rating, Barnyardgrass [3, 26]: 0; Barnyardgrass plant response rating (0 to 100 scale) ([4]; 31 g ai/ha): 0; Plant response rating, Barnyardgrass ([4]; 125 g ai/ha): 0; Ragweed plant response rating (0 to 100 scale) ([5]; 31 g ai/ha): 0; Plant response rating, Ragweed ([5]; 125 g ai/ha): 0; Foxtail, Giant plant response rating (0 to 100 scale) ([6]; 31 g ai/ha): 0; Plant response rating, Foxtail, Giant ([6]; 125 g ai/ha): 0; Plant response rating, Barnyardgrass [7]: 15; Kochia plant response rating (0 to 100 scale) ([8]; 31 g ai/ha): 0; Plant response rating, Kochia ([8]; 125 g ai/ha): 0; Plant response rating, Foxtail, Giant [9, 21]: 0; Plant response rating, Foxtail, Giant [9, 26]: 0; Plant response rating, Rice [10]: 0; Plant response rating, Ryegrass, Italian ([11]; 31 g ai/ha): 0; Plant response rating, Wheat ([12]; 31 g ai/ha): 0; Plant response rating, Galium [13, 21]: 0; Plant response rating, Galium [13, 26]: 10; Plant response rating, Pigweed ([14]; 31 g ai/ha): 0; Plant response rating, Ducksalad [15]: 0; Pigweed plant response rating (0 to 100 scale) ([16]; 31 g ai/ha): 0; Plant response rating, Pigweed ([16]; 125 g ai/ha): 0; Plant response rating, Blackgrass [17, 21]: 0; Plant response rating, Blackgrass [17, 26]: 0; Plant response rating, Kochia [18, 21]: 0; Plant response rating, Kochia [18, 26]: 0; Ryegrass, Italian plant response rating (0 to 100 scale) ([19]; 31 g ai/ha): 0; Plant response rating, Ryegrass, Italian ([19]; 125 g ai/ha): 0; Plant response rating, Sedge, Umbrella [20]: 0
